pKi: −log10 of the molar value. Bounds are passed on as bounds.

The assay has as its target human Thrombin (Homo sapiens, UniProt P00734). The experiment in a line: In vitro assay for inhibition of Thrombin (chromogenic or fluorogenic assay). In kind it is biochemical. As to conditions: Example 2 chromogenic assay, other Examples fluorogenic assay, read-out: thrombin inhibitory Ki.
In the case of `Cn1cnc(C[C@@H](C(=O)N2CCOCC2)N2CC[C@H](NS(=O)(=O)CCc3ccc(Cl)s3)C2=O)n1` [Example 80, 2-(5-chloro-2-thienyl)-N-{(3S)-1-[(1S)-1-[(1-methyl-1H-1,2,4-triazol-3-yl)methyl]-2-(4-morpholinyl)-2-oxoethyl]-2-oxo-3-pyrrolidinyl}ethanesulfonamide], the pKi is over 7.30.
The figure for `Cn1ncnc1C[C@@H](C(=O)N1CCOCC1)N1CC[C@H](NS(=O)(=O)CCc2ccc(Cl)s2)C1=O` [Example 81, 2-(5-chloro-2-thienyl)-N-{(3S)-1-[(1S)-1-[(1-methyl-1H-1,2,4-triazol-5-yl)methyl]-2-(4-morpholinyl)-2-oxoethyl]-2-oxo-3-pyrrolidinyl}ethanesulfonamide] is over 7.00; for `Cc1noc(C[C@@H](C(=O)N2CCOCC2)N2CC[C@H](NS(=O)(=O)CCc3ccc(Cl)cc3)C2=O)n1` [Example 82, 2-(4-chlorophenyl)-N-{(3S)-1-[(1S)-1-[(3-methyl-1,2,4-oxadiazol-5-yl)methyl]-2-(4-morpholinyl)-2-oxoethyl]-2-oxo-3-pyrrolidinyl}ethanesulfonamide] it is over 7.00; for `CN(Cc1ccccc1)C(=O)C[C@@H](C(=O)N1CCOCC1)N1CC[C@H](NS(=O)(=O)CCc2ccc(Cl)s2)C1=O` [Example 83, (3S)-3-[(3S)-3-({[2-(5-chloro-2-thienyl)ethyl]sulfonyl)amino)-2-oxo-1-pyrrolidinyl]-N-methyl-4-(4-morpholinyl)-4-oxo-N-(phenylmethyl)butanamide] it is over 7.30.
Then `CC(C)OC[C@@H](C(=O)N1CCOCC1)N1CC[C@H](NS(=O)(=O)CCc2ccc(Cl)s2)C1=O` [Example 84, 2-(5-chloro-2-thienyl)-N-{(3S)-1-[(1S)-1-{[(1-methylethyl)oxy]methyl}-2-(4-morpholinyl)-2-oxoethyl]-2-oxo-3-pyrrolidinyl}ethanesulfonamide], with over 8.00; and `CCOC[C@@H](C(=O)N1CCOCC1)N1CC[C@H](NS(=O)(=O)CCc2ccc(Cl)s2)C1=O` [Example 85, 2-(5-chloro-2-thienyl)-N-{(3S)-1-[(1S)-1-[(ethyloxy)methyl]-2-(4-morpholinyl)-2-oxoethyl]-2-oxo-3-pyrrolidinyl}ethanesulfonamide], with over 8.00; and `CCOC[C@@H](C(=O)N1CCOCC1)N1CC[C@H](NS(=O)(=O)CCc2ccc(Cl)cc2)C1=O` [Example 86, 2-(4-chlorophenyl)-N-((3S)-1-[(1S)-1-[(ethyloxy)methyl]-2-(4-morpholinyl)-2-oxoethyl]-2-oxo-3-pyrrolidinyl}ethanesulfonamide], with over 7.60.
As for `CCOC[C@@H](C(=O)N1CCOCC1)N1CC[C@H](NS(=O)(=O)/C=C(\C)c2ccc(Cl)s2)C1=O` [Example 87, (1E)-2-(5-chloro-2-thienyl)-N-{(3S)-1-[(1S)-1-[(ethyloxy)methyl]-2-(4-morpholinyl)-2-oxoethyl]-2-oxo-3-pyrrolidinyl}-1-propene-1-sulfonamide], the pKi was over 8.00.
In the case of `COCC[C@@H](C(=O)N1CCOCC1)N1CC[C@H](NS(=O)(=O)CCc2ccc(Cl)s2)C1=O` [Example 88], the pKi was over 7.60.
Consider `COC[C@@H](C(=O)N1CCOCC1)N1CC[C@H](NS(=O)(=O)CCc2ccc(Cl)cc2)C1=O` [Example 89, 2-(4-chlorophenyl)-N-{(3S)-1-[(1S)-1-[(methyloxy)methyl]-2-(4-morpholinyl)-2-oxoethyl]-2-oxo-3-pyrrolidinyl}ethanesulfonamide], for which the pKi was over 7.30.
The figure for `O=C([C@H](Cc1ccncc1)N1CC[C@H](NS(=O)(=O)CCc2ccc(Cl)s2)C1=O)N1CCOCC1` [Example 90, 2-(5-chloro-2-thienyl)-N-{(3S)-1-[(1S)-2-(4-morpholinyl)-2-oxo-1-(4-pyridinylmethyl)ethyl]-2-oxo-3-pyrrolidinyl}ethanesulfonamide] is over 7.30; for `O=C([C@H](Cc1cccnc1)N1CC[C@H](NS(=O)(=O)CCc2ccc(Cl)s2)C1=O)N1CCOCC1` [Example 91, 2-(5-chloro-2-thienyl)-N-{(3S)-1-[(1S)-2-(4-morpholinyl)-2-oxo-1-(3-pyridinylmethyl)ethyl]-2-oxo-3-pyrrolidinyl}ethanesulfonamide] it is over 8.00.
Then `CN(C)CC[C@@H](C(=O)N1CCOCC1)N1CC[C@H](NS(=O)(=O)CCc2ccc(Cl)s2)C1=O` [Example 93, 2-(5-chloro-2-thienyl)-N-{(3S)-1-[(1S)-3-(dimethylamino)-1-(4-morpholinylcarbonyl)propyl]-2-oxo-3-pyrrolidinyl}ethanesulfonamide], with over 7.00; and `O=C([C@H](CCN1CCCCC1)N1CC[C@H](NS(=O)(=O)CCc2ccc(Cl)s2)C1=O)N1CCOCC1` [Example 94, 2-(5-chloro-2-thienyl)-N-{(3S)-1-[(1S)-1-(4-morpholinylcarbonyl)-3-(1-piperidinyl)propyl]-2-oxo-3-pyrrolidinyl}ethanesulfonamide], with over 7.00.
For the compound `O=C([C@H](CCN1CCOCC1)N1CC[C@H](NS(=O)(=O)CCc2ccc(Cl)s2)C1=O)N1CCOCC1` [Example 95, 2-(5-chloro-2-thienyl)-N-{(3S)-1-[(1S)-3-(4-morpholinyl)-1-(4-morpholinylcarbonyl)propyl]-2-oxo-3-pyrrolidinyl}ethanesulfonamide], the pKi is over 7.00.
Then `C/C(=C\S(=O)(=O)N[C@H]1CCN([C@@H](CCN2CCOCC2)C(=O)N2CCOCC2)C1=O)c1ccc(Cl)s1` [Example 96, (1E)-2-(5-chloro-2-thienyl)-N-{(3S)-1-[(1S)-3-(4-morpholinyl)-1-(4-morpholinylcarbonyl)propyl]-2-oxo-3-pyrrolidinyl}-1-propene-1-sulfonamide], with over 7.30.
`COC[C@@H](C(=O)N1CCOCC1)N1CC[C@H](N(CC(=O)N(C)C)S(=O)(=O)CCc2ccc(Cl)s2)C1=O` [Example 97, N^2-{[2-(5-chloro-2-thienyl)ethyl]sulfonyl}-N^1,N^1-dimethyl-N^2-{(3S)-1-[(1S)-1-[(methyloxy)methyl]-2-(4-morpholinyl)-2-oxoethyl]-2-oxo-3-pyrrolidinyl}glycinamide]: the pKi is over 7.30.
The figure for `CNC(=O)CN([C@H]1CCN([C@@H](COC)C(=O)N2CCOCC2)C1=O)S(=O)(=O)CCc1ccc(Cl)s1` [Example 98, N^2-{(2-(5-chloro-2-thienyl)ethyl]sulfonyl}-N^1-methyl-N^2-{(3S)-1-[(1S)-1-[(methyloxy)methyl]-2-(4-morpholinyl)-2-oxoethyl]-2-oxo-3-pyrrolidinyl}glycinamide] is over 8.00; for `CS(=O)(=O)CC[C@@H](C(=O)N1CCOCC1)N1CC[C@H](NS(=O)(=O)CCc2ccc(Cl)cc2)C1=O` [Example 99, 2-(4-chlorophenyl)-N-{(3S)-1-[(1S)-3-(methylsulfonyl)-1-(4-morpholinylcarbonyl)propyl]-2-oxo-3-pyrrolidinyl}ethanesulfonamide] it is over 6.70.

By pKi is commonly meant the negative decadic logarithm of the Ki, by convention in mol/L.
